{"source": "patent US20150320709A1", "about": "“METHODS AND COMPOSITIONS FOR FACILITATING WEIGHT LOSS BY ADMINISTRATION OF THYROID HORMONES” (priority 2011, published 2015)", "key": {"[1]": {"test": "Circulating thyroid hormone labs (FT3, FT4, rT3, TSH) in weight loss program patients on thyroid hormone treatment", "format": "in vivo, human", "from_the_text": "FIG. 1 depicts hormonal responses to a hypocaloric state with subsequent treatment. Note: Time frames and shapes of response curves are approximated. Levels of all four hormones are normal before the diet (Time A). At time between time points B and D, TSH is dropping slightly to signal the thyroid gland to make less thyroid hormone. This drop is the mechanism to decrease metabolism in the hypocaloric state. At point C, free T3 begins to drop as rT3 increases. Also at time point C, different observations have been reported for changes in FT4: in our experience, FT4 also drops as indicated on the graph. In the literature, some report no change, whereas others report an increase in FT4. By the time of the blood sampling (time E), in our experience, patients whose FT3 and FT4 have dropped to the low end of normal (with possible above normal rT3 levels) are those experiencing symptoms of low thyroid. They may have any of the following symptoms: feeling cold, cold hands and feet, elevated diastolic blood pressure secondary to vasoconstriction, fatigue, depression, constipation, hair loss, dry skin, insomnia, as well as others. They have often hit a plateau of weight loss even though they have continued to maintain their hypocaloric diet and exercise program. At point F, we begin treatment with thyroid hormone (for example, T4 with T3, T3 alone, T3 with T2 and T4, or T2 alone. Between points F and G, FT3 and rT3 (and FT4 if T4 was administered) are returning to more normal levels, while TSH plummets, often to undetectable levels. At time point H, symptoms of low thyroid are resolved, the patient has no symptoms of hyperthyroidism, and if rT3 had risen and was treated appropriately, rT3 decreased.\nThe first patient example is a person, 5′2″, weight 268 lbs, body mass index (BMI) 49 (nl 19-24; overweight 25-29; obesity≧30). Baseline blood pressure was 110/74, blood sugar (BS) was 153 mg/dL 10 days after their first visit. Their medical problems at baseline included obesity, type 2 diabetes mellitus (DM2), high blood pressure (HTN), fatigue, depression, and asthma. Their medications included glipizide 10 mg daily, amitriptyline 50 mg daily, metoprolol 50 mg daily, furosemide 40 mg daily, potassium chloride, lisinopril 10 mg daily, Advair Discus 500/50 twice daily (bid), and montelukast 10 mg daily. They were started on our comprehensive program. Five months after starting their weight loss treatment, they developed symptoms of hypothyroidism with constipation and fatigue. They had lost 28 lbs by this time and was having difficulty losing more weight even though they were eating less than they were before their weight loss treatment began. At the start of treatment, their FT4 was 0.9 ng/dL (nl 0.7-1.48). At the time of their low thyroid symptoms, their FT3 was 2.9 pg/mL (nl 1.71-3.71) and their FT4 was 0.91 ng/dL (nl 0.7-1.48). They were then treated with thyroid hormone (desiccated thyroid with a ratio of T4:T3 of about 4:1) at 60 mg daily for 6 days to acclimate, then increased to 120 mg daily. […] After two years on their weight loss treatment, their weight was 231 lbs. […] We tested for rT3 at this point. Their labs on the 150 mg dose of desiccated thyroid were: rT3 394 pg/mL (nl 90-350), FT3 3.94 pg/mL (nl 1.71-3.71), and FT4 1.24 ng/dL (nl 0.7-1.48). The task of bringing down their rT3 was then addressed. Over a period of a few months, their desiccated thyroid hormone was discontinued and instead the patient was given gradually increasing doses of T3 only, starting at 20 mcg daily and gradually increasing the T3 to 60 mcg bid. Five months after starting on T3 with increasing doses, their weight had dropped to 209 lbs. Their BP was 118/66 mmHg with pulse of 74 on lisinopril 10 mg daily, metoprolol 50 mg bid, and furosemide 40 mg daily. Instead of glipizide, they were taking metformin 500 mg bid. […] Their most recent labs on 60 mcg bid of T3 were FT3 3.8 pg/mL (nl 1.71-3.71), FT4 0.64 ng/dL (nl 0.7-1.48) and rT3 137 pg/mL (nl 90-350). Four months prior to this visit their BS was 125 mg/dl. […]"}, "[2]": {"test": "Low thyroid symptoms / clinical status of weight loss program patients on thyroid hormone treatment", "format": "in vivo, human", "details": "for reported symptoms: Patient Example 4"}}}
{"smiles": "N[C@@H](Cc1cc(I)c(Oc2ccc(O)c(I)c2)c(I)c1)C(=O)O", "note": "[T3, (2S)-2-amino-3-[4-(4-hydroxy-3-iodo-phenoxy)-3,5-diiodo-phenyl]propanoic acid]", "values": [{"measurement": "FT4", "setting": "[1]; Patient Example 1, on 60 mcg bid, nl 0.7-1.48", "value": 0.64, "unit": "ng/dL"}, {"measurement": "FT3", "setting": "[1]; Patient Example 1, on 60 mcg bid, nl 1.71-3.71", "value": 3.8, "unit": "pg/mL"}, {"measurement": "rT3", "setting": "[1]; Patient Example 1, on 60 mcg bid, nl 90-350", "value": 137, "unit": "pg/mL"}, {"measurement": "FT4", "setting": "[1]; Patient Example 2, T3 only, 25 mcg bid, nl 0.93-1.70", "value": 0.67, "unit": "ng/dL"}, {"measurement": "FT3", "setting": "[1]; Patient Example 2, T3 only, 25 mcg bid, nl 2.2-4.0", "value": 2.5, "unit": "pg/mL"}, {"measurement": "rT3", "setting": "[1]; Patient Example 2, T3 only, 25 mcg bid, nl 90-350", "value": 193, "unit": "pg/mL"}, {"measurement": "FT4", "setting": "[1]; Patient Example 4, T3 50 mcg 2 PO q am and 1 PO 8-10 hours later, normal range 0.93-1.7", "value": "less than 0.1 ng/dL"}, {"measurement": "FT3", "setting": "[1]; Patient Example 4, T3 50 mcg 2 PO q am and 1 PO 8-10 hours later, normal range 2.2-4.0", "value": 7.0, "unit": "pg/mL"}, {"measurement": "rT3", "setting": "[1]; Patient Example 4, T3 50 mcg 2 PO q am and 1 PO 8-10 hours later, normal range 90-350", "value": "less than 15 pg/mL"}, {"measurement": "low thyroid symptoms", "setting": "[2]; Patient Example 3, T3 25 mcg t.i.d. alone, about a week after stopping desiccated thyroid", "value": "low thyroid symptoms returned"}, {"measurement": "reported symptoms", "setting": "[2]; T3 50 mcg 2 PO q am and 1 PO 8-10 hours later, initial visit", "value": "feeling cold, hair loss and nail peeling"}, {"measurement": "reported symptoms", "setting": "[2]; same T3 dose (not decreased), over 6 weeks later", "value": "continued to report suffering from fatigue and coldness"}]}
